Test results: patent US11078198B2 (BRISTOL-MYERS SQUIBB COMPANY, priority 2017, dated 2021)

Target: T1, human FXR (Homo sapiens, UniProt Q96RI1)
T1 construct: expressed in transfected cells; host or cells: HEK293 cells stably carrying a 5xGal4-response-element firefly luciferase reporter, transiently transfected with pcDNA3.1-Gal4-FXR
T1 sequence (Q96RI1 262-486 limits assumed): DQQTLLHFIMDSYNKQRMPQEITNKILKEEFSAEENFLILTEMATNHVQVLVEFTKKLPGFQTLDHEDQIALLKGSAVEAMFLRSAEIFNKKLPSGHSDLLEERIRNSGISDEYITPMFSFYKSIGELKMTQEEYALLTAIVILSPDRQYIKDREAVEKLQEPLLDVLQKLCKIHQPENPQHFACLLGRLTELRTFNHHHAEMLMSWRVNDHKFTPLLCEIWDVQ
Assay: transient human FXR/Gal4-luciferase reporter assay
Format: cell-based
Details: Gal4-hFXR transfected HEK293 reporter cells; relative to 8 μM GW-4064
Procedure, shortened: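 Transient Gal4-hFXR LBD fusion (pcDNA3.1, Lipofectamine, overnight) expressed in a HEK293 reporter line stably bearing five Gal4 elements upstream of firefly luciferase, grown in charcoal/dextran-stripped FBS. Compound dilutions in DMSO incubated with cells overnight at 37° C, 5% CO2, before luciferase readout.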

Structure (SMILES)	EC50 [µM]
O=C(O)c1cc(F)c2nc(N3CCC4(CC3)CC(c3c(-c5ccccc5C(F)(F)F)noc3C3CC3)C4)sc2c1 [Example 36, 2-(2-(5-cyclopropyl-3-(2-(trifluoromethyl)phenyl)isoxazol-4-yl)-7-azaspiro[3.5]nonan-7-yl)-4-fluorobenzo[d]thiazole-6-carboxylic acid]	0.116
CC(C)NC(=O)c1cc(F)c2nc(N3CCC4(C=C(c5c(-c6c(Cl)cncc6Cl)noc5C5CC5)C4)CC3)sc2c1 [Example 199, 2-(2-(5-Cyclopropyl-3-(3,5-dichloropyridin-4-yl)isoxazol-4-yl)-7-azaspiro[3.5]non-1-en-7-yl)-4-fluoro-N-isopropylbenzo[d]thiazole-6-carboxamide]	0.431
O=C(O)c1ccc2cc(N3CCC4(C=C(c5c(-c6ncccc6Cl)noc5C5CC5)C4)CC3)ccc2n1 [Example 152, 6-(2-(3-(3-Chloropyridin-2-yl)-5-cyclopropylisoxazol-4-yl)-7-azaspiro[3.5]non-1-en-7-yl)quinoline-2-carboxylic acid]	1.63
Cn1cc(C(=O)O)c2cnc(N3CCC4(C=C(c5c(-c6c(Cl)cccc6Cl)noc5C5CC5)C4)CC3)cc21 [Example 117, 6-(2-(5-Cyclopropyl-3-(2,6-dichlorophenyl)isoxazol-4-yl)-7-azaspiro[3.5]non-1-en-7-yl)-1-methyl-1H-pyrrolo[3,2-c]pyridine-3-carboxylic acid]	0.139
O=C(O)c1cc(F)c2nc(N3CCC4(C=C(c5c(-c6c(F)cccc6Cl)noc5C5CC5)C4)CC3)sc2c1 [Example 136, 2-(2-(3-(2-Chloro-6-fluorophenyl)-5-cyclopropylisoxazol-4-yl)-7-azaspiro[3.5]non-1-en-7-yl)-4-fluorobenzo[d]thiazole-6-carboxylic acid]	0.037

Continued by falling EC50, values first:

EC50 [µM]	Structure (SMILES)
0.733	O=C(O)c1cc2ccc(N3CCC4(C=C(c5c(-c6c(F)cccc6F)noc5C5CC5)C4)CC3)cc2nn1 [Example 79, 7-(2-(5-Cyclopropyl-3-(2,6-difluorophenyl)isoxazol-4-yl)-7-azaspiro[3.5]non-1-en-7-yl)cinnoline-3-carboxylic acid]
0.168	CS(=O)(=O)NC(=O)c1cc(OC(F)F)c2cc(N3CCC4(C=C(c5c(-c6ncccc6Cl)noc5C5CC5)C4)CC3)ccc2n1 [Example 190, 6-(2-(3-(3-Chloropyridin-2-yl)-5-cyclopropylisoxazol-4-yl)-7-azaspiro[3.5]non-1-en-7-yl)-4-(difluoromethoxy)-N-(methylsulfonyl)quinoline-2-carboxamide]
0.155	NC(=O)c1cc(F)c2nc(N3CCC4(C=C(c5c(-c6c(Cl)cncc6Cl)noc5C5CC5)C4)CC3)sc2c1 [Example 202, 2-(2-(5-Cyclopropyl-3-(3,5-dichloropyridin-4-yl)isoxazol-4-yl)-7-azaspiro[3.5]non-1-en-7-yl)-4-fluorobenzo[d]thiazole-6-carboxamide]
0.135	O=C(O)c1cnc(N2CCC3(C=C(c4c(-c5c(Cl)cccc5Cl)noc4C4CC4)C3)CC2)cc1C(F)(F)F [Example 116, 6-(2-(5-Cyclopropyl-3-(2,6-dichlorophenyl)isoxazol-4-yl)-7-azaspiro[3.5]non-1-en-7-yl)-4-(trifluoromethyl)nicotinic acid]
0.016	CS(=O)(=O)NC(=O)c1cc(OC(F)F)c2cc(N3CCC4(C=C(c5c(-c6c(Cl)cncc6Cl)noc5C5CC5)C4)CC3)ccc2n1 [Example 185, 6-(2-(5-Cyclopropyl-3-(3,5-dichloropyridin-4-yl)isoxazol-4-yl)-7-azaspiro[3.5]non-1-en-7-yl)-4-(difluoromethoxy)-N-(methylsulfonyl)quinoline-2-carboxamide]
0.011	Cc1cc(C(=O)O)cc2sc(N3CCC4(C=C(c5c(-c6c(Cl)cccc6Cl)noc5C5CC5)C4)CC3)nc12 [Example 45, 2-(2-(5-Cyclopropyl-3-(2,6-dichlorophenyl)isoxazol-4-yl)-7-azaspiro[3.5]non-1-en-7-yl)-4-methylbenzo[d]thiazole-6-carboxylic acid]
